Measured values published in the NIST ThermoML archive (doi:10.1021/je0201370).

How the values were obtained:
[1] = 298.1 K; 101.33 kPa; Liquid; vibrating tube
[2] = excess molar enthalpy (molar enthalpy of mixing); xn = mol fraction of the nth substance listed; conditions: 101 kPa, Liquid

CCCCCCO [hexan-1-ol]
Conditions | mass density [kg/m3]
[1] | 815.16

c1ccccc1 [benzene]
Conditions | mass density [kg/m3]
[1] | 873.45

CCCOC(=O)CC [propyl propanoate] + CCCCCCO
[2], 308 K
Conditions | excess molar enthalpy [kcal/mol]
x1 = 0.0406 | 0.0552
x1 = 0.089 | 0.116
x1 = 0.1367 | 0.17
x1 = 0.1766 | 0.208
x1 = 0.247 | 0.269
x1 = 0.3217 | 0.315
x1 = 0.3805 | 0.34
x1 = 0.4198 | 0.355
x1 = 0.4667 | 0.361
x1 = 0.5259 | 0.367
x1 = 0.5961 | 0.362
x1 = 0.6484 | 0.349
x1 = 0.6999 | 0.327
x1 = 0.7542 | 0.299
x1 = 0.7995 | 0.263
x1 = 0.8595 | 0.205
x1 = 0.9109 | 0.143
x1 = 0.9496 | 0.0872

CCCCCCO [hexan-1-ol] + c1ccccc1
[2]
Conditions | excess molar enthalpy [kcal/mol]
298 K, x1 = 0.0619 | 0.155
298 K, x1 = 0.0988 | 0.197
298 K, x1 = 0.1383 | 0.231
298 K, x1 = 0.1909 | 0.258
298 K, x1 = 0.2287 | 0.273
298 K, x1 = 0.2675 | 0.283
298 K, x1 = 0.3137 | 0.289
298 K, x1 = 0.3792 | 0.291
298 K, x1 = 0.4153 | 0.284
298 K, x1 = 0.4625 | 0.271
298 K, x1 = 0.5107 | 0.261
298 K, x1 = 0.5648 | 0.242
298 K, x1 = 0.6192 | 0.217
298 K, x1 = 0.7214 | 0.163
298 K, x1 = 0.7711 | 0.139
298 K, x1 = 0.8482 | 0.0908
298 K, x1 = 0.8884 | 0.0691
298 K, x1 = 0.979 | 0.0136
308 K, x1 = 0.037 | 0.115
308 K, x1 = 0.0647 | 0.173
308 K, x1 = 0.1001 | 0.217
308 K, x1 = 0.1428 | 0.256
308 K, x1 = 0.1815 | 0.279
308 K, x1 = 0.2272 | 0.299
308 K, x1 = 0.2476 | 0.306
308 K, x1 = 0.3195 | 0.317
308 K, x1 = 0.3867 | 0.322
308 K, x1 = 0.463 | 0.313
308 K, x1 = 0.4675 | 0.31
308 K, x1 = 0.5017 | 0.303
308 K, x1 = 0.5463 | 0.288
308 K, x1 = 0.593 | 0.266
308 K, x1 = 0.6577 | 0.231
308 K, x1 = 0.7485 | 0.177
308 K, x1 = 0.8067 | 0.137
308 K, x1 = 0.8318 | 0.119
308 K, x1 = 0.8867 | 0.0796
308 K, x1 = 0.9323 | 0.0478

CCCOC(=O)CC [propyl propanoate]
Conditions | mass density [kg/m3]
[1] | 875.53
